Usually GI50 stands for the concentration at which growth is held to half of that of the control.

Tested on in the first series: not listed separately
In words: logP determination by HPLC on a reversed-phase column (C 18) at pH 2.7. In kind it is physicochemical. The conditions noted are these: reversed-phase C 18, pH 2.7, preparation examples.
For `Cc1ccc2c(c1)C1CCN(C2)C(=O)[C@H]2OC(C)(C)O[C@@H]2CC1=O` (stereo partly drawn) [Example I-5, (3aS,13aR)-2,2,9-Trimethyl-6,11,13,13a-tetrahydro-4H-5,11-ethanol[1,3]dioxolo[4,5-d][2]benzazecine-4,12(3aH)-dione], the “logP (pH 2.7)” value is on record as 1.92. In the case of `Cc1ccc2c(c1)C1(O)CCN(C2)C(=O)[C@H]2OC(C)(C)O[C@@H]2CC1=O` (stereo partly drawn) [Example I-1, (3aS,13aR)-11-Hydroxy-2,2,9-trimethyl-6,11,13,13a-tetrahydro-4H-5,11-ethano[1,3]dioxolo[4,5-d][2]benzazecin-4,12(3aH)-one], the “logP (pH 2.7)” value was 1.61.

Staying with this series, now noted: reversed-phase C18 HPLC column, reversed-phase C 18, pH 2.7, Table 2, starting materials of formula (VI), read-out: Physical data: logP values.
As to `C=CCCN(Cc1cc(F)ccc1Br)C(=O)[C@H]1OC(C)(C)O[C@@H]1CC=C` [VI-2, (4S,5R)-5-allyl-N-(2-bromo-5-fluorobenzyl)-N-but-3-en-1-yl-2,2-dimethyl-1,3-dioxolane-4-carboxamide], the chromatographic logP was 4.83. The same measure, in the same setting: next, `C=CCCN(Cc1ccc(C)cc1Br)C(=O)[C@H]1OC(C)(C)O[C@@H]1CC=C` [VI-1, (4S,5R)-5-Allyl-N-(2-bromo-4-methylbenzyl)-N-but-3-en-1-yl-2,2-dimethyl-1,3-dioxolane-4-carboxamide]: 5.27.

The same series, now with this note: reversed-phase C18 HPLC column, reversed-phase C 18, pH 2.7, Table 3, starting materials of formula (VII), read-out: logP (pH 2.7).
Take `Cc1ccc(CN2CCC=CC[C@H]3OC(C)(C)O[C@@H]3C2=O)c(Br)c1` [VII-1, (3aS,10aR)-5-(2-Bromo-4-methylbenzyl)-2,2-dimethyl-3a,5,6,7,10,10a-hexahydro-4H-[1,3]dioxolo[4,5-c]azonin-4-one]: the chromatographic logP was 3.41. With `COc1cc(Br)c(CN2CCC=CCCCC2=O)cc1OC` [VII-4, 1-(2-bromo-4,5-dimethoxybenzyl)-1,3,4,5,8,9-hexahydro-2H-azonin-2-one], the chromatographic logP is 2.78. Take `CC1(C)O[C@@H]2C(=O)N(Cc3cc(F)ccc3Br)CCC=CC[C@H]2O1` [VII-2, (3aS,10aR)-5-(2-bromo-5-fluorobenzyl)-2,2-dimethyl-3a,5,6,7,10,10a-hexahydro-4H-[1,3]dioxolo[4,5-c]azonin-4-one]: the chromatographic logP stood at 3.09.

Consider `O=C1CCCC=CCCN1Cc1cc2c(cc1Br)OCO2` [VII-5, 1-[(6-Bromo-1,3-Benzodioxol-5-yl)Methyl]-1,3,4,5,8,9-Hexahydro-2H-azonin-2-one], for which the chromatographic logP was 2.94. As for `CC1(C)O[C@@H]2C(=O)N(Cc3ccncc3Br)CCC=CC[C@H]2O1` [VII-3, (3aS,10aR)-5-[(3-bromopyridin-4-yl)methyl]-2,2-dimethyl-3a,5,6,7,10,10a-hexahydro-4H-[1,3]dioxolo[4,5-c]azonin-4-one], the chromatographic logP is 1.96.

The same series, now with this note: reversed-phase C18 HPLC column, reversed-phase C 18, pH 2.7, preparation examples, read-out: logP (pH 2.7).
As for `CC1(C)O[C@@H]2C(=O)N3CCC(O)(C(=O)C[C@H]2O1)c1cc2c(cc1C3)OCO2` (stereo partly drawn) [Example I-4, (3aS,14aR)-12-hydroxy-2,2-dimethyl-6,12,14,14a-tetrahydro-4H-5,12-ethanobis[1,3]dioxolo[4,5-d:4′,5′-k][2]benzazecine-4,13(3aH)-dione], the chromatographic logP was found to be 1.38. On to `CC1(C)O[C@@H]2C(=O)N3CCC(C(=O)C[C@H]2O1)c1ccc(F)cc1C3` (stereo partly drawn) [Example I-6, (3aS,13aR)-8-Fluoro-2,2-dimethyl-6,11,13,13a-tetrahydro-4H-5,11-ethano[1,3]dioxolo[4,5-d][2]benzazecine-4,12(3aH)-dione], for which the chromatographic logP is 1.69. In the case of `O=C1CCCC(=O)C2(O)CCN1Cc1cc3c(cc12)OCO3` (centres unmarked) [Example I-3, 12-Hydroxy-9,10,12-trihydro-5H-6,12-ethano[1,3]dioxolo[4,5-k][2]benzazecine-7,11(8H)-dione], the chromatographic logP was determined as 0.99. Consider `CC1(C)O[C@@H]2C(=O)N3CCC(=CC[C@H]2O1)c1cnccc1C3` [Example Ia-3, (3aS,13aR)-2,2-Dimethyl-3a,6,13,13a-tetrahydro-4H-5,11-ethano[1,3]dioxolo[4,5-c]pyrido[3,4-h]azecin-4-one], for which the chromatographic logP is 0.49. The same measure, in the same setting: the figure for `CC1(C)O[C@@H]2C(=O)N3CCC(O)(C(=O)C[C@H]2O1)c1ccc(F)cc1C3` (stereo partly drawn) [Example I-2, (3aS,13aR)-8-Fluoro-11-hydroxy-2,2-dimethyl-6,11,13,13a-tetrahydro-4H-5,11-ethano[1,3]dioxolo[4,5-d][2]benzazecine-4,12(3aH)-dione] is 1.49; for `Cc1ccc2c(c1)C1=CC[C@H]3OC(C)(C)O[C@@H]3C(=O)N(CC1)C2` [Example Ia-1, (3aS,13aR)-2,2,9-Trimethyl-3a,6,13,13a-tetrahydro-4H-5,11-ethano[1,3]dioxolo[4,5-d][2]benzazecin-4-one] it is 2.62; for `COc1cc2c(cc1OC)C1=CCCCC(=O)N(CC1)C2` [Example Ia-4, 10,11-Dimethoxy-1,4,5,6-tetrahydro-3H-2,8-ethano-2-benzazecin-3-one] it is 1.82. The same measure, in the same setting: next, `O=C1CCCC(=O)N2CCC1c1cc3c(cc1C2)OCO3` (centres unmarked) [Example I-7, 9,10,12-Trihydro-5H-6,12-ethano[1,3]dioxolo[4,5-k][2]benzazecine-7,11(8H)-dione]: 1.3; `CC1(C)O[C@@H]2C(=O)N3CCC(=CC[C@H]2O1)c1ccc(F)cc1C3` [Example Ia-2, (3aS,13aR)-8-Fluoro-2,2-dimethyl-3a,6,13,13a-tetrahydro-4H-5,11-ethano[1,3]dioxolo[4,5-d][2]benzazecin-4-one]: 2.39; `Cc1ccc2c(c1)C1CCN(C2)C(=O)[C@@H](O)[C@H](O)CC1=O` (stereo partly drawn) [Example I-9, (4S,5R)-4,5-Dihydroxy-10-methyl-5,6,8-trihydro-1H-2,8-ethano-2-benzazecine-3,7(4H)-dione]: 1.33.

As to `O=C1C[C@@H](O)[C@H](O)C(=O)N2CCC1c1cc3c(cc1C2)OCO3` (some centres unmarked) [Example I-10], the chromatographic logP came out at 0.89. Regarding `CC1(C)O[C@@H]2C(=O)N3CCC(=CC[C@H]2O1)c1cc2c(cc1C3)OCO2` [Example Ia-6, (3aS,14aR)-2,2-Dimethyl-3a,6,14,14a-tetrahydro-4H-5,12-ethanobis[1,3]dioxolo[4,5-d:4′,5′-k][2]benzazecin-4-one], the chromatographic logP came out at 2.19. Regarding `O=C1CCCC=C2CCN1Cc1cc3c(cc12)OCO3` [Example Ia-5, 5,8,9,10-Tetrahydro-7H-6,12-ethano[1,3]dioxolo[4,5-k][2]benzazecin-7-one], the chromatographic logP was found to be 2.01.

For the molecule `CC1(C)O[C@@H]2C(=O)N3CCC(C(=O)C[C@H]2O1)c1cc2c(cc1C3)OCO2` (stereo partly drawn) [Example I-8, (3aS,14aR)-2,2-Dimethyl-6,12,14,14a-tetrahydro-4H-5,12-ethanobis[1,3]dioxolo[4,5-d:4′,5′-k][2]benzazecine-4,13(3aH)-dione], the chromatographic logP came to 1.6.

Another series has as its system A375 cells. The series is described as follows: LIVE/DEAD cytotoxicity assay, inhibition of cell proliferation. The class given is cell-based, human. Particulars: Homo sapiens, A-375, 48 h, read-out: log GI50 values (M), A375 cells (converted). The protocol:
(§1) The compounds of the general formula (I) according to the invention were tested for a possible cytotoxic or proliferation-inhibiting activity on the human tumour cell lines HeLa, SW620 and A375 (all from ATTC, American Type Culture Collection). To this end, the cells were plated in microtitre plates from Greiner (Manufacturer No. 781092) at a cell density of 1000 cells/microtitre plate well and cultivated in cell culture medium at 37° C. under a 5% carbon dioxide atmosphere. Cell culture media and additives were purchased from Invitrogen and the foetal calf serum from Biochrom. The cell culture media for Hela and A375 cells were used as stated by ATCC (HeLa: MEM, Order No. 10370-047, with 1% sodium bicarbonate, 1% non-essential amino acids, 1% sodium pyruvate, 10% foetal calf serum, 0.1% gentamycin; A375: DMEM, Order No. 41965-039, 2% sodium bicarbonate, 1% L-Glutamax, 10% foetal calf serum, 0.1% gentamycin). The culture medium for the SW620 cells consisted of DMEM, Order No. 41965-039, 1% non-essential amino acids, 10% foetal calf serum, 0.1% gentamycin.
(§2) 24 hours after the cells had been plated in the microtitre plates, various concentrations of at most 100 μM down to a minimum concentration of 5 nM of the test compounds were added to the cells. Stock solutions of the test compounds (10 mM) were prepared in DMSO and stored at −20° C.; for the cytotoxicity tests, the test compounds were diluted in the appropriate cell culture medium.
(§3) After a further 48 hours of incubation, the cells were washed with medium and analysed with the aid of a two-colour fluorescence cytotoxicity/viability test (LIVE/DEAD viability/cytotoxicity ASSAY kit from Molecular Probes, Order No. L-3224), according to the instructions of the manufacturer. To this end, the medium was aspirated and in each case 30 μl of LIVE/DEAD reagent per microtitre plate well were added to the cells, which were then incubated for 30 minutes. The cells were then washed with PBS (phosphate-buffered saline). The number of live cells was analysed by measuring the green fluorescence of the live dye calcein-AM as a component of the LIVE/DEAD reagent using a fluorescence plate reader (Flexstation, from Molecular Devices) at an excitation wavelength of 485 nm and an emission wavelength of 525 nm (cf. Oral, H. B. Endothelium 6, (1998), 143-151).
(§4) Cells only with cell culture medium, without added test compounds, were treated in parallel and analysed as growth controls. The reference compounds used for anti-tumour agents having a cytotoxic or proliferation-inhibiting action were colchicine (from Merck/Calbiochem, Order No. 234115) and Taxol (baccatin III N-benzyl-b-phenylisoserine ester, from Merck/Calbiochem, Order No. 580555) (cf. Schiff, P. B. and Horwitz, S. B., Proceedings of the National Academy of Sciences of the U.S.A. 77, 1561-1565, 1980; Holmes, F. A. et al., Journal of the National Cancer Institute 83, 1797-1805, 1991).
(§5) The cytotoxic effects of the test compounds were expressed as logarithmic GI50 values (growth-inhibiting logarithmic concentration value at which a cell growth reduced by 50% compared to the control without test compounds was measured (cf. Xia et al., Journal of Medicinal Chemistry 44, 3932-3936, 2001; Smith, J. A. et al., Gynecologic Oncology 98, 141-145, 2005)).
As for `COc1cc2c(c(OC)c1OC)-c1ccc(OC)c(=O)cc1[C@@H](NC(C)=O)CC2` [Colchicine, colchicine], the 50% growth inhibitory concentration (GI50) is 2e-08 M.

In the next series the test system is SW620 cells. The description is as above. Particulars: Homo sapiens, SW-620, 48 h, read-out: log GI50 values (M), SW620 cells (converted). In kind it is cell-based, human. The protocol:
as §1, §2, §3, §4, §5
`COc1cc2c(c(OC)c1OC)-c1ccc(OC)c(=O)cc1[C@@H](NC(C)=O)CC2` [Colchicine, colchicine]: the GI50 was 1.26e-08 M.

Another series has as its system HeLa cells. Described as above. In kind it is cell-based, human. Particulars: Homo sapiens, 48 h, read-out: log GI50 values (M), HeLa cells (converted). The protocol:
as §1
24 hours after the cells had been plated in the microtitre plates, various concentrations of at most 100 μM down to a minimum concentration of 5 nM of the test compounds were added to the cells. […]
as §3, with “To this end, the medium was aspirated and in each case 30 μl of LIVE/DEAD reagent per microtitre plate well were added to the cells, which were then incubated for 30 minutes. The cells were then washed with PBS (phosphate-buffered saline).” left out
Cells only with cell culture medium, without added test compounds, were treated in parallel and analysed as growth controls. […]
As to `COc1cc2c(c(OC)c1OC)-c1ccc(OC)c(=O)cc1[C@@H](NC(C)=O)CC2` [Colchicine, colchicine], the GI50 was 1.58e-08 M.

The values above are taken from patent US20090131406A1 (BAYER CROPSCIENCE AG, priority 2005, published 2009).
